Reference: patent US10676461B2, “Heterocyclic compound” (TAKEDA PHARMACEUTICAL COMPANY LIMITED, priority 2016, dated 2020)

System: sphingomyelin in the cerebral cortex
Test: Efficacy evaluation test using sphingomyelin accumulation model mouse (Niemann-Pick disease type A and type B model)
Type: in vivo, mouse (C57BL/6J Jcl)
Conditions: for Amount of sphingomyelin per wet weight of cerebral cortex: twice daily, 2 wk, imipramine hydrochloride 40 mg/kg i.p. once daily, 4 wk, male mouse, Mean ± S.D., N = 7-8
Text: Test Example 4 Efficacy Evaluation Test Using Sphingomyelin Accumulation Model Mouse as Niemann-Pick Disease Type A and Type B Model
A phase 1b clinical trial on Niemann-Pick disease type B which develops by abnormality in acid sphingomyelinase has reported that the administration of recombinant acid sphingomyelinase (olipudase alfa) decreased sphingomyelin accumulated in a peripheral organ such as the liver, and this led to the amelioration of the pathological condition (Am J Surg Pathol. 2016; 40: 1232).
Also, the intraperitoneal administration of an acid sphingomyelinase inhibitor, imipramine hydrochloride, to a mouse increases its enzyme substrate, sphingomyelin, not only in a peripheral organ such as the liver but in the central nervous system such as the cerebrum, and the mouse obtained by such administration is recognized as an animal model that can induce sphingomyelin accumulation, as in human Niemann-Pick disease type A and type B, in each tissue (Gen Physiol Biophys 2016; 35: 195).
Accordingly, the compound of the present invention was evaluated as a SPT inhibitor for its sphingomyelin-lowering effect on Niemann-Pick disease type B, and Niemann-Pick disease type A, which also accumulates sphingomyelin in the central nervous system such as the cerebral cortex, by the following method. Imipramine hydrochloride (Wako Pure Chemical Industries, Ltd.) was dissolved at a concentration of 2 mg/mL in saline and intraperitoneally administered at a dose of 40 mg/kg to each 6-week-old male C57BL/6J Jcl mouse (CLEA Japan, Inc.) for 2 weeks once daily. […] In this operation, the intraperitoneal administration of imipramine hydrochloride was also carried out once daily concurrently therewith. After the completion of the administration of the SPT inhibitor, the cerebrum was excised from the mouse cranium and separated into the cortex and the medulla. The cortical portion was rapidly frozen in liquid nitrogen and then disrupted using ShakeMaster Auto (Bio-Medical Science Co., Ltd.) under freezing. 2-Propanol (containing 0.002% of BHT (dibutylhydroxytoluene as a fat and oil antioxidant) was added thereto in an amount of 9 mL/g of wet weight, and lipids in the cerebral cortex were extracted by suspension using ShakeMaster Auto again. The concentration of sphingomyelin contained in the 2-propanol was measured using a sphingomyelin assay kit (Abcam, Inc., ab138877) based on the fluorescence quantification method. EnVision 2102 Multilabel Reader (PerkinElmer Inc.) was used in fluorescence measurement.
From this, it was able to be confirmed that a model mimicking Niemann-Pick disease type A and type B which accumulate sphingomyelin in the cerebral cortex was established by the intraperitoneal administration of imipramine hydrochloride for 4 weeks.

Cn1nc(C(=O)N[C@@H]2CCN(C(=O)c3cc(Cl)c4nccnc4c3)C[C@@H]2c2ccc(F)cc2)cc1C(F)(F)F [Example 1, N-((3S,4R)-1-((8-Chloroquinoxalin-6-yl)carbonyl)-3-(4-fluorophenyl)piperidin-4-yl)-1-methyl-5-(trifluoromethyl)-1H-pyrazole-3-carboxamide]
Amount of sphingomyelin per wet weight of cerebral cortex (group 3: 0.3 mg/kg oral): 3.282 ± 0.260 µg/g | Amount of sphingomyelin per wet weight of cerebral cortex (group 4: 1.0 mg/kg oral): 2.972 ± 0.635 µg/g | Amount of sphingomyelin per wet weight of cerebral cortex (group 5: 3.0 mg/kg oral): 2.952 ± 0.219 µg/g | effect of suppressing sphingomyelin accumulation in the cerebral cortex (oral, 2 weeks twice daily, single dose 0.3, 1.0 and 3.0 mg/kg, imipramine model mouse, p<0.025, one-tailed Williams' test): dose-dependent significant effect of suppressing sphingomyelin accumulation in the cerebral cortex
